System: patients with advanced solid tumors
Assay: Safety: adverse events (NCI CTCAE v3.0), ECG
Assay type: in vivo, human
Method: Patients’ demographics and medical history were recorded at baseline. Physical examination and PS were assessed at baseline and on Day 1 of each cycle. Adverse events (AEs), vital signs, hematology and chemistry values, and creatinine clearance were assessed at baseline and weekly during treatment. Toxicity was graded using National Cancer Institute Common Terminology Criteria for Adverse Events (NCI CTCAE), version 3.0. An electrocardiogram (ECG) was performed at baseline, before and after treatment on Days 1 and 15 of Cycles 1 and 2, and on Day 15 of even-numbered cycles thereafter. CT scans were done at baseline and every 8 weeks thereafter. Tumor response was assessed using Response Evaluation Criteria in Solid Tumors (RECIST, v1.0), with confirmation of responses performed at least 4 weeks later.

SMILES: CC(C)c1cc(-c2n[nH]c(=O)n2-c2ccc3c(ccn3C)c2)c(O)cc1O [Ganetespib, 5-[2,4-dihydroxy-5-(1 methyl-ethyl)phenyl]-2,4 dihydro-4-(1-methyl-1H indol-5 yl)-3H-1,2,4 triazole-3-one]
- Constipation, AE of any grade, Number (%) of patients (150-216 mg/m^2, n = 22): 3 (13.6) n (%)
- Decreased appetite, AE of any grade, Number (%) of patients (150-216 mg/m^2, n = 22): 8 (36.4) n (%)
- Dehydration, AE of any grade, Number (%) of patients (150-216 mg/m^2, n = 22): 3 (13.6) n (%)
- Dehydration, CTCAE Grade 3 and 4 AE, Number (%) of patients (150-216 mg/m^2, n = 22): 1 (4.5) n (%)
- Dehydration, serious adverse events, Number (%) of patients (150-216 mg/m^2, n = 22): 1 (4.5) n (%)
- Diarrhea, AE of any grade, Number (%) of patients (150-216 mg/m^2, n = 22): 21 (95.5) n (%)
- Diarrhea, CTCAE Grade 3 and 4 AE, Number (%) of patients (150-216 mg/m^2, n = 22): 2 (9.1) n (%)
- Dizziness, AE of any grade, Number (%) of patients (150-216 mg/m^2, n = 22): 3 (13.6) n (%)
- Dry mouth, AE of any grade, Number (%) of patients (150-216 mg/m^2, n = 22): 3 (13.6) n (%)
- Dyspnea, AE of any grade, Number (%) of patients (150-216 mg/m^2, n = 22): 4 (18.2) n (%)
- Extremity pain, AE of any grade, Number (%) of patients (150-216 mg/m^2, n = 22): 1 (4.5) n (%)
- Fatigue, AE of any grade, Number (%) of patients (150-216 mg/m^2, n = 22): 13 (59.1) n (%)
- Fatigue, CTCAE Grade 3 and 4 AE, Number (%) of patients (150-216 mg/m^2, n = 22): 4 (18.2) n (%)
- Headache, AE of any grade, Number (%) of patients (150-216 mg/m^2, n = 22): 6 (27.3) n (%)
- Hyperbilirubinemia, CTCAE Grade 3 and 4 AE, Number (%) of patients (150-216 mg/m^2, n = 22): 2 (9.1) n (%)
- Hypokalemia, AE of any grade, Number (%) of patients (150-216 mg/m^2, n = 22): 4 (18.2) n (%)
- Hypokalemia, CTCAE Grade 3 and 4 AE, Number (%) of patients (150-216 mg/m^2, n = 22): 2 (9.1) n (%)
- Hyponatremia, CTCAE Grade 3 and 4 AE, Number (%) of patients (150-216 mg/m^2, n = 22): 0 n (%)
- Hypophosphatemia, AE of any grade, Number (%) of patients (150-216 mg/m^2, n = 22): 2 (9.1) n (%)
- Hypophosphatemia, CTCAE Grade 3 and 4 AE, Number (%) of patients (150-216 mg/m^2, n = 22): 2 (9.1) n (%)
- Insomnia, AE of any grade, Number (%) of patients (150-216 mg/m^2, n = 22): 6 (27.3) n (%)
- Musculoskeletal chest pain, AE of any grade, Number (%) of patients (150-216 mg/m^2, n = 22): 4 (18.2) n (%)
- Nausea, AE of any grade, Number (%) of patients (150-216 mg/m^2, n = 22): 7 (31.8) n (%)
- Peripheral edema, AE of any grade, Number (%) of patients (150-216 mg/m^2, n = 22): 5 (22.7) n (%)
- Pneumonia, serious adverse events, Number (%) of patients (150-216 mg/m^2, n = 22): 1 (4.5) n (%)
- Rash, AE of any grade, Number (%) of patients (150-216 mg/m^2, n = 22): 1 (4.5) n (%)
- Serum amylase elevated, CTCAE Grade 3 and 4 AE, Number (%) of patients (150-216 mg/m^2, n = 22): 1 (4.5) n (%)
- Spinal cord compression, CTCAE Grade 3 and 4 AE, Number (%) of patients (150-216 mg/m^2, n = 22): 0 n (%)
- Urinary tract infection, AE of any grade, Number (%) of patients (150-216 mg/m^2, n = 22): 3 (13.6) n (%)
- Vomiting, AE of any grade, Number (%) of patients (150-216 mg/m^2, n = 22): 3 (13.6) n (%)
- Weight decreased, AE of any grade, Number (%) of patients (150-216 mg/m^2, n = 22): 5 (22.7) n (%)
- ALT elevated, AE of any grade, Number (%) of patients (150-216 mg/m^2, n = 22, first of two ALT elevated lines): 5 (22.7) n (%)
- ALT elevated, AE of any grade, Number (%) of patients (150-216 mg/m^2, n = 22, second of two ALT elevated lines): 3 (13.6) n (%)
- Incidence of diarrhea (150–216 mg/m^2 dose levels): 95.5%
- Incidence of fatigue (150–216 mg/m^2 dose levels): 59.1%
- ALT elevation, CTCAE Grade 3 and 4 AE, Number (%) of patients (All patients, n = 53): 3 (5.7) n (%)
- AST elevated, AE of any grade, Number (%) of patients (All patients, n = 53): 9 (17) n (%)
- Abdominal distension, AE of any grade, Number (%) of patients (All patients, n = 53): 6 (11.3) n (%)
- Abdominal pain, AE of any grade, Number (%) of patients (All patients, n = 53): 20 (37.7) n (%)
- Abdominal pain, serious adverse events, Number (%) of patients (All patients, n = 53): 2 (3.8) n (%)
- Anemia, AE of any grade, Number (%) of patients (All patients, n = 53): 16 (30.2) n (%)
- Any event, AE of any grade, Number (%) of patients (All patients, n = 53): 53 (100) n (%)
- Any event, CTCAE Grade 3 and 4 AE, Number (%) of patients (All patients, n = 53): 36 (67.9) n (%)
- Any event, serious adverse events, Number (%) of patients (All patients, n = 53): 15 (28.3) n (%)
- Arthralgia, CTCAE Grade 3 and 4 AE, Number (%) of patients (All patients, n = 53): 2 (3.8) n (%)
- Asthenia, AE of any grade, Number (%) of patients (All patients, n = 53): 8 (15.1) n (%)
- Asthenia, CTCAE Grade 3 and 4 AE, Number (%) of patients (All patients, n = 53): 4 (7.5) n (%)
- Asthenia, serious adverse events, Number (%) of patients (All patients, n = 53): 2 (3.8) n (%)
- Back pain, AE of any grade, Number (%) of patients (All patients, n = 53): 8 (15.1) n (%)
- Constipation, AE of any grade, Number (%) of patients (All patients, n = 53): 9 (17) n (%)
- Decreased appetite, AE of any grade, Number (%) of patients (All patients, n = 53): 11 (20.8) n (%)
- Dehydration, AE of any grade, Number (%) of patients (All patients, n = 53): 7 (13.2) n (%)
- Dehydration, CTCAE Grade 3 and 4 AE, Number (%) of patients (All patients, n = 53): 3 (5.7) n (%)
- Dehydration, serious adverse events, Number (%) of patients (All patients, n = 53): 2 (3.8) n (%)
- Diarrhea, AE of any grade, Number (%) of patients (All patients, n = 53): 47 (88.7) n (%)
- Diarrhea, CTCAE Grade 3 and 4 AE, Number (%) of patients (All patients, n = 53): 4 (7.5) n (%)

— publication PMC3626541, “A first in human, safety, pharmacokinetics, and clinical activity phase I study of once weekly administration of the Hsp90 inhibitor ganetespib (STA-9090) in patients with solid malignancies” (BMC Cancer, 2013)
